Legend:
anti-CysB Mab = assay: Peptide/full length canine CysB protein dose response in Tris buffer and serum (Example 51); assay type: binding, mouse; details: peptide 0 to 3200 nM added to mixture of antibody and P6-Fl or P6-DFF, Tris buffer
Experimental: A mixture of CysB P6-Fl or P6-DFF in Tris buffer with 0.1% Tween 20 (200 nM, 25 μL) and anti-Cys-Mab in Tris buffer with 0.1% Tween 20 (400 nM, 25 μL) was incubated at room temperature for 30 min in the wells of a 96 well black assay plate. A series of CysB peptides P6, P7, and P14 standard solutions having peptide concentrations ranging from 0 to 3200 nM (50 μL) were then added to the mixtures of the P6-Fl or P6-DFF and anti-CysB Mab in Tris Buffer. The plate was then incubated for 30 min at room temperature and the fluorescence intensities recorded at an excitation of 485 nm and an emission of 520 nm. The results are shown in FIG. 43, FIG. 44, FIG. 45, and FIG. 46.

[1] = test system: Monoclonal anti-CysB antibody (7C2); assay: Fluorescence quenching of canine CysB peptide-Fl/DFF conjugates by anti-CysB Mab or Mab-BHQ10 (Example 51); assay type: binding, mouse; details: Ab/Conjugate ratio = 2/1
Experimental: CysB peptide-fluorescein (Fl) or -difluorofluorescein (DFF) conjugates were dissolved in DMSO (0.5 mM) and diluted with Tris Buffer ([…] at pH8.0) to provide a stock solution (100 nM). Monoclonal anti-CysB antibody (7C2, raised against a peptide having the amino acid sequence of SEQ ID NO: 14) (8 mg/ml) was serially diluted in PBS buffer to provide solutions having an Anti-CysB-Mab concentration ranging from 0 to 800 nM in Tris buffer (50 mM at pH 8.0 with 0.5% sarkosyl (sodium lauroyl sarcosinate)). In a 96-well black assay plate containing the serially diluted Anti-CysB-Mab solution (50 μL) was added the peptide-Fl or peptide-DFF solution (50 μL), mixed well, incubated for 30 min and the fluorescence intensities recorded. The results are provided in FIG. 38, 39, 40, and Table 1.

[2] = Absorption and emission spectra of fluoresceins and SDMA conjugates (Example 33); assay type: physicochemical; details: PBS buffer
Text: The maximum absorption of fluorescein (Fl) in PBS buffer is at 489 nm and the maximum fluorescence emission is at 515 nm. When the fluorescein molecule is conjugated with an SDMA molecule via a —CH2NH— linker (i.e., to provide SDMA-Fl), its maximum absorption and emission are shifted to 495 nm and 525 nm, respectively. When the fluorescein molecule is substituted by fluorine at the 2′ and 7′ positions (i.e., to provide DFF) there is no any change in the maximum absorption and emission compared to unsubstituted fluorescein. When the fluorescein molecule is substituted by chloride at the 2′ and 7′ positions (i.e., to provide DCF) the maximum absorption and emission are red-shifted to 500 nm and 525 nm, respectively. Also conjugating DFF or DCF to SDMA via a —CH2NH— linker (i.e., to provide SDMA-DFF and SDMA DCF, respectively) results in the maximum absorption and emission being red-shifted. The maximum absorption and emission wavelengths of fluorescein (FL), 2′,7′-difluorofluorescien (DFF), 2′,7′-dichlorofluorescien (DCF), and their conjugates with SDMA via a —CH2NH— linker (i.e., SDMA-Fl (i.e., structure A3), SDMA-DFF, and SDMA-DCF) are listed in the Table provided below. The absorption spectra of DFF, SDMA-DFF, DCF, SDMA-DCF, Fl, and SDMA-FL are depicted in FIG. 25A and the emission spectra of SDMA-DFF, SDMA-DCF, Fl, and SDMA-FL are depicted in FIG. 25B.

anti-SDMA antibody = assay: Fluorescence quenching of SDMA tracers by anti-SDMA antibody or antibody-BHQ10 (Example 34); assay type: binding; details: for fluorescence quenched by adding anti-SDMA antibody: antibody not conjugated to a quencher
Experimental: Solutions of anti-SDMA antibody or anti-SDMA antibody conjugated to BHQ10 (4 eq.) in phosphate buffered saline (PBS) were prepared at concentrations of 0, 0.25, 0.5, 1, 2, 4, 8, and 16 μM (antibody solution). Solutions of an SDMA fluorescent tracer (i.e., SDMA-Fl, SDMA-DFF, or SDMA-DCF) in PBS were prepared at a concentration of 100 nM (tracer solution). 50 μL of antibody solution and 50 μL of tracer solution were combined on a 96-well UV plate and incubated for 30 min. at room temperature. […] The results are depicted in FIGS. 26 and 27.

antibody to SDMA = assay: Fluorescence decrease of tracer A3 on complexing with anti-SDMA antibody conjugated to BHQ10 (FIG. 23); assay type: binding
Text: The decrease in fluorescence of a fluorescent tracer when it forms a complex with a binding partner that is conjugated to a quencher is a function of the equivalents of quencher molecules that are conjugated to the binding partner. The more quencher molecules conjugated to the binding partner, the greater the decrease in fluorescence. This is depicted in FIG. 23 as a plot of fluorescence vs. ratio of antibody:fluorescent tracer for antibody that is conjugated to 2, 4, 6, and 8 BHQ10 quencher molecules.

[3] = test system: Cy5 conjugated antibody (Ab-Cy5, anti-T4-Mab); assay: Fluorescence quenching of T4-F by Ab-Cy5 (Example 23); assay type: binding
Experimental: T4-F was dissolved in DMSO (1 mM) and diluted with PBS to provide a stock solution (4 μM). A series of PBS solutions of Cy5 conjugated antibody (Ab-Cy5, made as in Example 12) having Ab-Cy5 concentrations ranging from 0 to 400 nM were prepared by serial dilution. In the wells of a 96 well black assay plate was combined T4-F in PBS (5 μL) and a serially diluted Ab-Cy5 solution (95 μL) and the plate shaken for 30 min at room temperature.

anti-T4 antibody = assay: Maximum percentage fluorescence quenching of T2-F, T3-F, T4-F by anti-T4 antibody with and without quencher label (Example 27 table); assay type: binding
Experimental: In another experiment, tracer T2-F, T3-F, or T4-F was dissolved in DMSO to provide a DMSO solution at a tracer concentration of 1 mM. The DMSO solution was then diluted with phosphate buffered saline (“PBS”) to provide a stock solution of each tracer at a concentration of 10 μM. Monoclonal anti-T4-Mab or anti-T4-Mab conjugated to a quencher (Cy3-Ab, IRdyeQC1-Ab, Cy5-Ab, BHQ1-Ab) were serially diluted in PBS to provide solutions having an Anti-T4-Mab or anti-T4-Mab conjugated to quencher at concentration ranging from 0 to 2 μM. In a 96 well black assay plate containing the serially diluted Anti-T4-Mab or anti-T4-Mab conjugated to quencher (95 μL) was added the tracer T2-F, T3-F, or T4-F solution (5 μL), mixed well, and incubated for 30 min and the fluorescence intensities then recorded at an excitation wavelength of 485 nm and an emission wavelength of 520 nm. The results of maximum percentage fluorescence quenching for different tracers and quencher-modified antibodies are provided in the following Table: […]

[4] = test system: anti-penicillin polyclonal antibody; assay: Fluorescence of beta lactam-fluorescein conjugates with anti-penicillin antibody (Example 25); assay type: binding; details: tracer and antibody 200 nM
Experimental: Beta lactam antibiotics conjugated to fluorescein (i.e., AMO-FITC, AMO-F, AMP-F, and CEF-F) in PBS (400 nM, 100 μL) were mixed with either anti-penicillin or anti-cefotaxime polyclonal antibody (400 nM, 100 μL, commercially available from Novus Biologicals, LLC of Centennial, CO) in the absence of and in the presence of free beta-lactam antibiotic (ampicillin (400 nM) was added to AMP-F and cefotaxime (400 nM) was added to CEF-F) in a 96 well black assay plate. […] The solutions were incubated at room temperature for 5 min and the fluorescence intensity measured.

[5] = test system: anti-sulfadimethoxine monoclonal antibody; assay: Fluorescence of SDM-F or SDM-Su-F with anti-sulfadimethoxine monoclonal antibody (Example 26); assay type: binding
Experimental: SDM-F or SDM-Su-F in PBS (400 nM, 100 μL) was mixed with anti-sulfadimethoxine monoclonal antibody (400 nM, 100 μL, commercially available from Genway Biotech of San Diego, CA) in the absence of and the presence of sulfadimethoxine (SDM) (400 nM). The resulting solutions were incubated at room temperature for 5 min and the fluorescence intensity then measured.

GHDELAYF [P7, canine CysB peptide]
fluorescence intensity as a function of CysB peptide concentration (anti-CysB Mab): a dose response was observed
Percentage Fluorescence Quenching, DFF Conjugate At 5-Position ([1]; CysB peptide conjugated to 5-position of difluorofluorescein): 5%
Percentage Fluorescence Quenching, F1 Conjugate At 5-Position ([1]; CysB peptide conjugated to 5-position of fluorescein): 5%

C/N=C(\NC)NCCC[C@@H](N)C(=O)NCc1c(O)ccc2c(-c3ccccc3C(=O)O)c3ccc(=O)cc-3oc12 (stereo in doubt) [SDMA-Fl]
Max Absorption [2]: 495 nm
Max Emision [2]: 525 nm
fluorescence quenched by adding anti-SDMA antibody (anti-SDMA antibody): about 30%
maximum decrease in fluorescence (antibody to SDMA; antibody conjugated to 2 equivalents of BHQ10): about 50%
maximum decrease in fluorescence (antibody to SDMA; antibody conjugated to 8 equivalents of BHQ10): about 70%

O=C(O)c1ccccc1-c1c2ccc(=O)cc-2oc2c(CNC(Cc3cc(I)c(Oc4cc(I)c(O)c(I)c4)c(I)c3)C(=O)O)c(O)ccc12 (centres unmarked) [T4-F]
quenching efficiency ([3]; ratio of T4-F: Ab-Cy5 of about 1:1): about 70%
Percentage of fluorescence quenching, BHQ1-Ab (anti-T4 antibody; anti-T4-Mab conjugated to BHQ1): No
Percentage of fluorescence quenching, Cy5-Ab (anti-T4 antibody; anti-T4-Mab conjugated to Cy5): 31%
Percentage of fluorescence quenching, Ab (anti-T4 antibody; anti-T4-Mab without quencher): No

CC1(C)SC2C(NC(=O)C(NCc3c(O)ccc4c(-c5ccccc5C(=O)O)c5ccc(=O)cc-5oc34)c3ccc(O)cc3)C(=O)N2C1C(=O)O (centres unmarked) [AMO-F, Amoxicillin-Fluorescein]
fluorescence quenching by anti-penicillin antibody [4]: quenched

CC1(C)SC2C(NC(=O)C(NCc3c(O)ccc4c(-c5ccccc5C(=O)O)c5ccc(=O)cc-5oc34)c3ccccc3)C(=O)N2C1C(=O)O (centres unmarked) [AMP-F, Ampicillin-Fluorescein]
fluorescence quenching by anti-penicillin antibody [4]: quenched

CCN1/C(=C/C=C/C=C/C2=[N+](CCCCCC(=O)O)c3ccc(S(=O)(=O)O)cc3C2(C)C)C(C)(C)c2cc(S(=O)(=O)[O-])ccc21 [Cy5, reference compound]
quenching of T4-F fluorescence by Cy5 alone (not conjugated to Anti-T4-Mab) [3]: did not quench fluorescence

CNC(=NCCCC(N)C(=O)NCc1c(O)c(F)cc2c(-c3ccccc3C(=O)O)c3cc(F)c(=O)cc-3oc12)NC (centres unmarked) [SDMA-DFF]
Max Absorption [2]: 437 nm
Max Emision [2]: 525 nm
quenching efficiency in comparison with SDMA-Fl (anti-SDMA antibody; anti-SDMA antibody conjugated to BHQ10 (4 eq.)): slightly greater
fluorescence quenched by adding anti-SDMA antibody (anti-SDMA antibody): about 50%

COc1cc(NS(=O)(=O)c2ccc(NCc3c(O)ccc4c(-c5ccccc5C(=O)O)c5ccc(=O)cc-5oc34)cc2)nc(OC)n1 [SDM-F, Sulfadimethoxine-Fluorescein]
amount of quenching compared to SDM-Su-F [5]: greater amount of quenching
fluorescence quenching by anti-sulfadimethoxine monoclonal antibody [5]: quenched

CC1(C)SC2C(NC(=O)C(NC(=S)Nc3ccc(-c4c5ccc(=O)cc-5oc5cc(O)ccc45)c(C(=O)O)c3)c3ccc(O)cc3)C(=O)N2C1C(=O)O (centres unmarked) [AMO-FITC]
fluorescence quenching by anti-penicillin antibody [4]: not quenched

COc1cc(NS(=O)(=O)c2ccc(NC(=O)CCC(=O)NCc3c(O)ccc4c(-c5ccccc5C(=O)O)c5ccc(=O)cc-5oc34)cc2)nc(OC)n1 [SDM-Su-F, Sulfadimethoxine-Succinic-Fluorescein]
fluorescence quenching by anti-sulfadimethoxine monoclonal antibody [5]: quenched

Source: US12345641B2, “Fluorescence quenching immunoassay” (IDEXX Laboratories, Inc., priority 2020, dated 2025)
